# Test results reported in publication PMC10574143, “Exploring the Solubility Limits of Edaravone in Neat Solvents and Binary Mixtures: Experimental and Machine Learning Study” (Molecules, 2023).
# Assays:
# [1] = solubility data curation, three-parameter van't Hoff consensus; type: physicochemical; settings: methanol, van't Hoff fit to data of refs 21, 26
# Source text: The dataset characterizing edaravone solubility is an accumulation of values collected from available literature sources augmented with a series of new measurements reported in this paper, which are summarized in Supplementary Section S1. There are three accounts documenting the temperature-dependent solubility of the titled compound in fifteen neat solvents including alcohols, esters, some aprotic solvents, and water. Moreover, nine binary solvent mixtures were used for EDA dissolution measurements at a range of temperatures with a variety of binary compositions. […] First of all, one can notice serious divergences in the reported solubility values for some systems. This inconsistency prohibits the direct use of such a collection for the training of models due to the inherent noise in the dataset, which is a frequently occurring problem intrinsic to diverse measurement protocols. […] Secondly, the solubility space is not represented uniformly due to different numbers of measurements for dissimilar temperature ranges and concentrations of solvent mixtures, which might overrepresent those systems studied more extensively in the dataset. Finally, the main focus in solubility determination was narrowed to polar protic solvents, with very limited representation of non-protic or diprotic solvents. To address the first two issues, the final collection was cured using commonly accepted model equations by fitting their parameters based on experimental mole fractions. Here, the three-parameter van’t Hoff and Jouyban–Acree equations were used for neat and binary solvents, respectively. In addition, temperature standardization was performed for a uniform representation of solubility in the final dataset. […] The complete list of experimental solubility data is provided in the Supporting Materials (see Section S2). As can be directly inferred from the plots presented in Figure 1, incongruences appear not only in the solubility values but also in their temperature trends. […] Since only an arbitrary decision would allow the rejection of either of the measurement series, the final solubility dataset was constructed based on the predictions of the van’t Hoff equation, parametrized using all available experimental data. Moreover, temperature normalization was adopted by accepting data between 0 °C and 50 °C with 5 °C intervals. […] Fortunately, the majority of saturated EDA systems studied suffered experimentally from much smaller deviations, as detailed in the Supplementary Materials (see Section S2.1), and the ones presented in Figure 1 show the worst extremes.
# The datasets used for model development underwent curing and unification. All solubility data in neat solvents were analyzed using a simple thermodynamic model relying on the fundamental van’t Hoff equation extended for the temperature dependence of the equilibrium constant by a polynomial fit. The following equation (1) lnxEcur=A+B/T+C/T^2 has three adjustable parameters, the values of which were computed by minimizing root mean square deviations (RMSD) between experimental and computed values. The collection of obtained parameter values for all analyzed systems (including literature data), along with graphical illustrations, is provided in the Supplementary Materials (see Section S2, Table S3 and Figure S2).
# [2] = poor aqueous solubility; no reference given; cited from earlier work
compound,measurement,setting,value
"CC1=NN(c2ccccc2)C(=O)C1 [Edaravone, 5-methyl-2-phenyl-4H-pyrazol-3-one]",log(x1consensus),"[1]; x2*=1.00, 0 °C",-1.93
same,log(x1consensus),"[1]; x2*=1.00, 5 °C",-1.87
same,log(x1consensus),"[1]; x2*=1.00, 10 °C",-1.80
same,log(x1consensus),"[1]; x2*=1.00, 15 °C",-1.73
same,log(x1consensus),"[1]; x2*=1.00, 20 °C",-1.66
same,Biopharmaceutics Classification System (BCS) category,[2],Class IV
